Measurements as given in ChEMBL document CHEMBL5108037, “Cyclic Peptide Screening Methods for Preclinical Drug Discovery” (J Med Chem, 2022).
Values belong to the compound of their own block, whether it stands above or below them. Starred links: 1 amine or outer side, 2 acyl side, 3 side chain; linkers in the order of their positions; H or OH if unused. Positions of bridges follow the written chain, without caps; N, C: chain ends. Non-standard residues stand in square brackets, D forms with d. Residues, ends and D or L forms follow the SMILES beside them. *: point of attachment. X2 = CC1CCN(C[C@H](N[*:1])C(=O)[*:2])CC1; X3 = NC(=O)CNC[C@H](CSCC(=O)[*:1])N[*:2]; mXylylene = c1cc(C[*:1])cc(C[*:2])c1; X1 = O=C(CN(CC[*:3])[*:1])[*:2]; CH2CH2 = C(C[*:2])[*:1]; Dap = NC[C@H](N)C(=O)O; BrAc = O=C(CBr)*; βAla = NCCC(=O)O; Mpa = O=C(O)CCS

What was measured:
[1] = Inhibition of FphF (unknown origin) using Cy5-ENLYFQGK(QSY21)-NH2 as substrate incubated for 1 hr by fluorescence based analysis; design: species or system Homo sapiens
GTPase KRas = GTPase KRas (Homo sapiens, UniProt P01116, G12D); experiment: Inhibition of human His-Avi-TEV-tagged KRAS G12D mutant expressed in Escherichia coli BL21(DE3) by TR-FRET assay
Sonic hedgehog protein = Sonic hedgehog protein (Homo sapiens, UniProt Q15465); experiment: Binding affinity to SHH (unknown origin) assessed as dissociation constant by calorimetric analysis
[2] = Inhibition of NDM-1 (unknown origin); design: species or system Bacteria
[3] = Inhibition of HIF-1alpha / HIF-1beta (unknown origin) protein-protein interaction by ELISA assay; design: species or system Homo sapiens
[4] = Inhibition of recombinant His-tagged HIF-1 expressed in human U2OS cells measured after 90 mins by ELISA assay; format: cell-based
TCF4-CTNNB1 complex [5] = biological target: T1, TCF4-CTNNB1 complex (Homo sapiens, UniProt P35222); experiment: Binding affinity to FITC-labeled Tcf4 (unknown origin) /6His-tagged beta-catenin (135 to 668 residues) (unknown origin) protein-protein interaction assessed as inhibition constant by fluorescence polarization assay; format: protein-complex assay
T1 sequence (P35222 whole entry): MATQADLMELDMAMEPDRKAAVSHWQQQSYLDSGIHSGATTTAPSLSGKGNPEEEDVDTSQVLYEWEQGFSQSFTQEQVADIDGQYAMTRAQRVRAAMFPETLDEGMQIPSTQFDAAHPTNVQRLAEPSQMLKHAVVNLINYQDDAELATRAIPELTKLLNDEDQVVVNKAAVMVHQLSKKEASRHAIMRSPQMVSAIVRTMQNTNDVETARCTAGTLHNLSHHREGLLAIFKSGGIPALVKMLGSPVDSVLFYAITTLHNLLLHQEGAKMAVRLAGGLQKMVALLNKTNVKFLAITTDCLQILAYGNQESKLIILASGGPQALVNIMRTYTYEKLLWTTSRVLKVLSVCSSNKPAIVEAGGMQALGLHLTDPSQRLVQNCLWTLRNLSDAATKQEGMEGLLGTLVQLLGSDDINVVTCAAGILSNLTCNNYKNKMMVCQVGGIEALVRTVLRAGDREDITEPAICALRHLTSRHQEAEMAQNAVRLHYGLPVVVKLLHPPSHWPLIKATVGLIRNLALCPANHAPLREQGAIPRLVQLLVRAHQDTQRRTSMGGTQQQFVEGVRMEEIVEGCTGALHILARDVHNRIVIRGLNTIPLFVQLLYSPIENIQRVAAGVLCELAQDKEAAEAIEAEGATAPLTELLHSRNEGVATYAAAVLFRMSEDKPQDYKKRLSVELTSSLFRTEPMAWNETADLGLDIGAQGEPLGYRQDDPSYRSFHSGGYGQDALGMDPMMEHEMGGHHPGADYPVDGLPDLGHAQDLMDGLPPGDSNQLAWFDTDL
T1 sequence (P15884 whole entry): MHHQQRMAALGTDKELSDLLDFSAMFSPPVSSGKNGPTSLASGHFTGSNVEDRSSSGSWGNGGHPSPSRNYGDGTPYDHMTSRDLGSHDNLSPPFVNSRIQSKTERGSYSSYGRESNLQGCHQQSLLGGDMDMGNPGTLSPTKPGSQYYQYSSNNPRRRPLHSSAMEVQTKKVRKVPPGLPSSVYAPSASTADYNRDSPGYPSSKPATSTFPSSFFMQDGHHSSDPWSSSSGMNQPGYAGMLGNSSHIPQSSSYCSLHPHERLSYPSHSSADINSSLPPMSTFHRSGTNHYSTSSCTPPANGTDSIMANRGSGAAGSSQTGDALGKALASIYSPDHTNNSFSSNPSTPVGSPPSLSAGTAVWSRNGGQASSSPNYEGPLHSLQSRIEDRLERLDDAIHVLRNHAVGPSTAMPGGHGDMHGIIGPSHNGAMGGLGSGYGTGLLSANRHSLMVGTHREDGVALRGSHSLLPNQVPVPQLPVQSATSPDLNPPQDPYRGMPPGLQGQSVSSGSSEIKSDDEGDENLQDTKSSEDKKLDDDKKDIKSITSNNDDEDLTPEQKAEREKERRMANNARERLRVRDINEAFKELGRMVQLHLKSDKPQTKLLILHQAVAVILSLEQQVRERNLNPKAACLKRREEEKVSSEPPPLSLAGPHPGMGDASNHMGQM

TCF4-CTNNB1 complex [6] = biological target: T1, TCF4-CTNNB1 complex; experiment: Inhibition of FITC-labeled Tcf4 (unknown origin) / full length beta-catenin (1 to 781 residues) (unknown origin) protein-protein interaction measured after 1 hr by fluorescence polarization assay; format: protein-complex assay

GTPase KRas, sequence (P01116 whole entry G12D): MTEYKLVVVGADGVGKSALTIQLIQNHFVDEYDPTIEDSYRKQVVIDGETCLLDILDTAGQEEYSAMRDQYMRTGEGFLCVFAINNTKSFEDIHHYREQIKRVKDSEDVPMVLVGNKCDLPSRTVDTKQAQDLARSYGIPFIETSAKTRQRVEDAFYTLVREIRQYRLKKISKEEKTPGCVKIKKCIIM
Sonic hedgehog protein, sequence (Q15465 24-197 limits assumed): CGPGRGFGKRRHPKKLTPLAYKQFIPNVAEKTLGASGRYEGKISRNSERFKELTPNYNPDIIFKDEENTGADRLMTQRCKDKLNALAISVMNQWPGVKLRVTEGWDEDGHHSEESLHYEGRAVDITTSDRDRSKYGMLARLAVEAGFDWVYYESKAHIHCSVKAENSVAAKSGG

SMILES: CSCC[C@@H]1NC(=O)[C@H](Cc2c[nH]c3ccccc23)NC(=O)[C@H](CCCNC(=N)N)NC(=O)[C@H](Cc2c[nH]c3ccccc23)NC(=O)[C@H](CCCNC(=N)N)NC(=O)[C@H](C)NC(=O)[C@@H](NC(=O)[C@@H](N)C(C)C)CSC/C(=N/OCC(=O)CP(=O)(Oc2ccccc2)Oc2ccccc2)CSC[C@@H](C(=O)NCC(=O)O)NC(=O)[C@@H]2CCCN2C1=O
IC50 [1]: 647 nM

SMILES: CC1CCN(C[C@@H]2NC(=O)[C@H](CCCNC(=N)N)NC(=O)[C@H](Cc3ccccc3)NC(=O)[C@H](CC(N)=O)NC(=O)[C@H](CCCNC(=N)N)NC(=O)[C@H](Cc3ccccc3)NC(=O)[C@H](CC(N)=O)NC(=O)[C@H](C(C)C)NC(=O)[C@H](Cc3ccccc3)NC(=O)[C@H](Cc3ccc(O)cc3)NC(=O)CSC[C@@H](CNCC(N)=O)NC(=O)[C@H](CCCNC(=N)N)NC(=O)[C@H](Cc3ccccc3)NC2=O)CC1 (YFVNFRNFR[X2]FR; linker N-C via X3)
IC50 (GTPase KRas): 800 nM

SMILES: CSCC[C@@H]1NC(=O)[C@H](C)NC(=O)[C@H](CCC(=O)O)NC(=O)[C@@H](NC(=O)[C@@H]2CCCN2C(=O)[C@H](CO)NC(=O)[C@H](CO)NC(=O)CN)Cc2ccc(cc2)OCCSC[C@@H](C(=O)N[C@H](C(=O)N[C@@H](CC(=O)O)C(=O)N[C@H](C(=O)NCC(=O)O)[C@@H](C)O)[C@@H](C)O)NC(=O)[C@H](CCSC)NC(=O)[C@H](CC(=O)O)NC1=O (H-GSSPYEAMDMCTDTG-OH; linker 5-11 via CH2CH2)
Kd (Sonic hedgehog protein): 550 nM

SMILES: CC[C@H](C)[C@@H]1NC(=O)[C@H](CNC(=O)CBr)NC(=O)[C@H](CC(=O)O)NC(=O)[C@H](CC(=O)O)NC(=O)CNC(=O)[C@@H]2CCCN2C(=O)[C@H](C)NC(=O)[C@H](CCCNC(=N)N)NC(=O)[C@H]([C@@H](C)O)NC(=O)[C@H](CCC(N)=O)NC(=O)[C@H]([C@@H](C)O)NC(=O)CCSCCN(CC(N)=O)C(=O)[C@H](Cc2ccccc2)NC(=O)[C@H]([C@@H](C)O)NC1=O ([Mpa]TQTRAPGDD[Dap](BrAc)ITF[X1]-NH2; thioether 1-15)
IC50 (TCF4-CTNNB1 complex [5]): 4000 nM

Continued, values first:

IC50 [2]: 1200 nM
SMILES: CC[C@H](C)[C@@H]1NC(=O)[C@@H]2CCCN2C(=O)[C@H](CC(=O)O)NC(=O)[C@H](CCCNC(=N)N)NC(=O)[C@H](CCCNC(=N)N)NC(=O)[C@H](CC(C)C)NC(=O)[C@H](CS)NC(=O)[C@@H]2CCCN2C1=O (cyclo(CLRRDPIP))

IC50 [3]: 1300 nM
IC50 [4]: 19000 nM
SMILES: CC(C)C[C@@H]1NC(=O)[C@H](CS)NC(=O)[C@H](Cc2ccc(O)cc2)NC(=O)[C@H](C(C)C)NC(=O)[C@H](Cc2ccccc2)NC(=O)[C@H](CC(C)C)NC1=O

IC50 (TCF4-CTNNB1 complex [6]): 4800 nM
SMILES: CC(C)C[C@@H]1NC(=O)[C@@H]2CSCc3cccc(c3)CSC[C@H](NC(=O)[C@H](CC(N)=O)NC(=O)[C@H](CCCNC(=N)N)NC(=O)[C@H]([C@@H](C)O)NC(=O)[C@H](C(C)C)NC(=O)CCNC(=O)CCNC(=O)[C@H](Cc3ccccc3)NC(=O)[C@H](C(C)C)NC(=O)[C@H](CC(C)C)NC1=O)C(=O)N[C@@H](C(C)C)C(=O)N1CCC[C@H]1C(=O)N1CCC[C@H]1C(=O)N[C@@H](CC(=O)O)C(=O)N2 (cyclo(CLLVF[βAla][βAla]VTRNCVPPD); linker 1-12 via mXylylene)
